Patent publication US9481676B2, “Azepino[4,5-B]indoles and methods of use” (Medivation Technologies, Inc., priority 2008, dated 2016)

Tests used:
[1] = target: T1, human recombinant serotonin (5-Hydroxytryptamine) 5-HT6 receptor (Homo sapiens, UniProt P50406); assay: Serotonin 5-HT6 radioligand binding ([3H]LSD); settings: compound at 1 μM; read-out: Serotonin (1 μM) 5-HT6, percent inhibition of specific binding
T1 construct: expressed in transfected cells; host or cells: human HeLa cells
How it was run: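 Human recombinant 5-HT6 receptor from HeLa cells incubated with 1.5 nM [3H]LSD for 120 min at 37° C in 50 mM Tris-HCl pH 7.4, 150 mM NaCl, 2 mM ascorbic acid, 0.001% BSA. Nonspecific binding defined with 5 μM serotonin; bound ligand counted after filtration.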

[2] = target: T2, human recombinant adrenergic α2A receptor (Homo sapiens, UniProt P08913); assay: Adrenergic alpha2A radioligand binding ([3H]MK-912); settings: compound at 1 μM; read-out: Adrenergic (1 μM) α2A, percent inhibition of specific binding
T2 construct: expressed in transfected cells; host or cells: insect Sf9 cells
T2 sequence (P08913 1-465): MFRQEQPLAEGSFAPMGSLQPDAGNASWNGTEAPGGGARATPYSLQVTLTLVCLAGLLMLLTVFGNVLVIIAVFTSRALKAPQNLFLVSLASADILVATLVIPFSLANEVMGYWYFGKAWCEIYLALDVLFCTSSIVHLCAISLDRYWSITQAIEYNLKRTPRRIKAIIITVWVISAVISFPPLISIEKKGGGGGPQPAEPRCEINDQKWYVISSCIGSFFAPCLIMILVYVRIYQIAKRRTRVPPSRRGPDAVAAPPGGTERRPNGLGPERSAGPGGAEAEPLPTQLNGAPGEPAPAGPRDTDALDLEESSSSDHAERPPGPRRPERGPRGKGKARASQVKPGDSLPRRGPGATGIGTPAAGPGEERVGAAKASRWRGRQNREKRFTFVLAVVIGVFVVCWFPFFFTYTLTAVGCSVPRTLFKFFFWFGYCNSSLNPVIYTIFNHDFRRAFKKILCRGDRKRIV
How it was run: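 Membranes of Sf9 cells expressing human recombinant α2A receptor were incubated with compound and 1 nM [3H]MK-912 for 60 min at 25 °C in 50 mM Tris-HCl pH 7.4, 12.5 mM MgCl2, 2 mM EDTA. Nonspecific binding: 10 μM WB-4101.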

[3] = target: T3, human recombinant serotonin (5-Hydroxytryptamine) 5-HT2C receptor (Homo sapiens, UniProt P28335); assay: Serotonin 5-HT2C radioligand binding ([3H]Mesulergine); settings: compound at 1 μM; read-out: Serotonin (1 μM) 5-HT2C, percent inhibition of specific binding
T3 construct: expressed in transfected cells; host or cells: CHO-K1 cells
T3 sequence (P28335 33-458): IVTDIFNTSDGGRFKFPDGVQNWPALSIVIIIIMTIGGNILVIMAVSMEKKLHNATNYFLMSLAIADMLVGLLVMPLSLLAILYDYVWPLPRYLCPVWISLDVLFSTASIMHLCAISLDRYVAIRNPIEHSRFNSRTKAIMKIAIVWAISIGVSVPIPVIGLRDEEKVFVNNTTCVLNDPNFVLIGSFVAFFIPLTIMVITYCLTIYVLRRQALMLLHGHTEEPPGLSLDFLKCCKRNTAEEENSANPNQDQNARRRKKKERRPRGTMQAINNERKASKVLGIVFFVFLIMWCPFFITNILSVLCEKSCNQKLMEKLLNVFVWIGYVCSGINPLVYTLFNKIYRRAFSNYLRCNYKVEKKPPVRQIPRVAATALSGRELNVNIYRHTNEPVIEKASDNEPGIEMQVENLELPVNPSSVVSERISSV
How it was run: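 Membranes from CHO-K1 cells expressing human 5-HT2C, incubated with 1 nM [3H]mesulergine for 60 min at 25 °C in 50 mM Tris-HCl pH 7.4 with ascorbic acid and pargyline.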

[4] = target: T4, human recombinant histamine H1 receptor (Homo sapiens, UniProt P35367); assay: Histamine H1 radioligand binding ([3H]Pyrilamine); settings: compound at 1 μM; read-out: Histamine Binding (1 μM) H1, percent inhibition of specific binding
T4 construct: expressed in transfected cells; host or cells: CHO cells
T4 sequence (P35367 whole entry): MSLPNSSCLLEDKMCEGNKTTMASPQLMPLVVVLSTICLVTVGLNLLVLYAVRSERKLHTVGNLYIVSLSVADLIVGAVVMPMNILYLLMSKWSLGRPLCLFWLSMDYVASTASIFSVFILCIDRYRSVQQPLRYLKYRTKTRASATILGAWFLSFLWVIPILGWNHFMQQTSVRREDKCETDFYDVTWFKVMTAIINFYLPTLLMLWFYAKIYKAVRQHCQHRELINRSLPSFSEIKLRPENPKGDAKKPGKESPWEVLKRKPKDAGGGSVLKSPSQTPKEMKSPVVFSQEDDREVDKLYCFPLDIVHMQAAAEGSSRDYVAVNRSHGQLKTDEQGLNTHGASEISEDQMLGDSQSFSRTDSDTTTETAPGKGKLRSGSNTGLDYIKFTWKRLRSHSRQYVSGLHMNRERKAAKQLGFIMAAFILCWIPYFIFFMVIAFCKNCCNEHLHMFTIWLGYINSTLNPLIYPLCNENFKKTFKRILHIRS
How it was run: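 Membranes from CHO cells expressing the receptor were incubated with compound and 1.2 nM [3H]pyrilamine for 180 min at 25 °C in 50 mM Tris-HCl pH 7.4 with MgCl2, NaCl and sucrose; 1 μM pyrilamine defined non-specific binding. Filter-bound radioactivity was counted.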

T1 sequence (P50406 whole entry): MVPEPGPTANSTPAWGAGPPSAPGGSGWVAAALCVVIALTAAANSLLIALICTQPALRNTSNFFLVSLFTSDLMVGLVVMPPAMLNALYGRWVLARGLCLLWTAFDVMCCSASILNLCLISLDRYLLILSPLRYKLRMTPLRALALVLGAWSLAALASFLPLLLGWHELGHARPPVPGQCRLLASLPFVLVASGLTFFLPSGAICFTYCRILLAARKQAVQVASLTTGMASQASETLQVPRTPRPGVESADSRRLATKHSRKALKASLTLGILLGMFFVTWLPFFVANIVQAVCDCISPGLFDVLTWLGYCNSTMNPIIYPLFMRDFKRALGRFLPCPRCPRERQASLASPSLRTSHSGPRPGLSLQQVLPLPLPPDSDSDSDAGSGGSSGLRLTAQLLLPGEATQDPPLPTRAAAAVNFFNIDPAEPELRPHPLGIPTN

Compound	inhibition at 1 µM [1] [%]	inhibition at 1 µM [2] [%]	inhibition at 1 µM [3] [%]	inhibition at 1 µM [4] [%]
CN1CCc2c(n(CCc3ccc(C(F)(F)F)nc3)c3ccc(Cl)cc23)CC1 [Compound No. 1, 9-chloro-6-(2-(6-(trifluoromethyl)pyridin-3-yl)ethyl)-1,2,3,4,5,6-hexahydro-3-methylazepino[4,5-b]indole]	86	90	79	96
C/C(=C\n1c2c(c3cc(Cl)ccc31)CCN(C)CC2)c1ccc(F)cc1 [Compound No. 2, 9-chloro-6-((E)-2-(4-fluorophenyl)prop-1-enyl)-1,2,3,4,5,6-hexahydro-3-methylazepino[4,5-b]indole]	103	96	88	93
Cc1cncc(CCn2c3c(c4cc(Cl)ccc42)CCN(C)CC3)c1 [Compound No. 3, 9-chloro-3-methyl-6-(2-(5-methylpyridin-3-yl)ethyl)-1,2,3,4,5,6-hexahydroazepino[4,5-b]indole]	92	91	94	102
CC1CCN(C(=O)Cn2c3c(c4cc(Cl)ccc42)CCN(C)CC3)CC1 [Compound No. 76, 2-(9-chloro-2,3,4,5-tetrahydro-3-methylazepino[4,5-b]indol-6(1H)-yl)-1-(4-methylpiperidin-1-yl)ethanone]	39	7	78	95
COc1ccc(C(O)Cn2c3c(c4cc(Cl)ccc42)CCN(C)CC3)cc1OC (stereo not drawn) [Compound No. 77, 2-(9-chloro-2,3,4,5-tetrahydro-3-methylazepino[4,5-b]indol-6(1H)-yl)-1-(3,4-dimethoxyphenyl)ethanol]	33	85	72	97
COc1ccc(/C=C/n2c3c(c4cc(Cl)ccc42)CCN(C)CC3)cc1 [Compound No. 78, 6-(4-methoxystyryl)-9-chloro-1,2,3,4,5,6-hexahydro-3-methylazepino[4,5-b]indole]	91	83	98	100
Cc1ccc2c(c1)c1c(n2CC(=O)Nc2ccccc2)CCN(C)CC1 [Compound No. 79, 2-(2,3,4,5-tetrahydro-3,9-dimethylazepino[4,5-b]indol-6(1H)-yl)-N-phenylacetamide]	-7	17	-18	6
C=C(Cn1c2c(c3cc(Cl)ccc31)CCN(C)CC2)c1ccc(F)cc1 [Compound No. 82, 9-chloro-6-(2-(4-fluorophenyl)allyl)-3-methyl-1,2,3,4,5,6-hexahydroazepino[4,5-b]indole]	104	96	98	103
CN1CCc2c(n(/C=C/c3ccccc3F)c3ccc(Cl)cc23)CC1 [Compound No. 83, (E)-9-chloro-6-(2-fluorostyryl)-3-methyl-1,2,3,4,5,6-hexahydro azepino[4,5-b]indole]	103	99	100	97
C/C(=C/n1c2c(c3cc(Cl)ccc31)CCN(C)CC2)c1ccc(Cl)cc1Cl [Compound No. 152, (Z)-9-chloro-6-(2-(2,4-dichlorophenyl)prop-1-enyl)-1,2,3,4,5,6-hexahydro-3-methylazepino[4,5-b]indole]	73	93	94	91
COc1ccc(/C=C/n2c3c(c4cc(Cl)ccc42)CCN(C)CC3)cc1F [Compound No. 158, (E)-6-(3-fluoro-4-methoxystyryl)-9-chloro-1,2,3,4,5,6-hexahydro-3-methylazepino[4,5-b]indole]	93	99	99	98
C/C(=C/n1c2c(c3cc(C)ccc31)CCN(C)CC2)c1ccc(Cl)cc1Cl [Compound No. 174, (Z)-6-(2-(2,4-dichlorophenyl)prop-1-enyl)-1,2,3,4,5,6-hexahydro-3,9-dimethylazepino[4,5-b]indole]	100	101	101	98
COc1ccc(/C=C/n2c3c(c4cc(C)ccc42)CCN(C)CC3)cc1F [Compound No. 180, (E)-6-(3-fluoro-4-methoxystyryl)-1,2,3,4,5,6-hexahydro-3,9-dimethylazepino[4,5-b]indole]	95	99	100	97
Cc1ccc2c(c1)c1c(n2CC(=O)N2CCNCC2)CCN(C)CC1 [Compound No. 224, 2-(3,9-dimethyl-2,3,4,5-tetrahydroazepino[4,5-b]indol-6(1H)-yl)-1-(piperazin-1-yl)ethanone]	-4	8	11	33
Cc1ccc2c(c1)c1c(n2CC(=O)N2CCC(C)CC2)CCN(C)CC1 [Compound No. 225, 2-(3,9-dimethyl-2,3,4,5-tetrahydroazepino[4,5-b]indol-6(1H)-yl)-1-(4-methylpiperidin-1-yl)ethanone]	16	0	44	95
COc1ccc(/C=C/n2c3c(c4cc(Cl)ccc42)CCN(C)CC3)cc1OC [Compound No. 226, (E)-9-chloro-6-(3,4-dimethoxystyryl)-3-methyl-1,2,3,4,5,6-hexahydroazepino[4,5-b]indole]	36	93	82	99
COc1ccc(C(O)Cn2c3c(c4cc(C)ccc42)CCN(C)CC3)cc1OC (stereo not drawn) [Compound No. 227, 1-(3,4-dimethoxyphenyl)-2-(3,9-dimethyl-2,3,4,5-tetrahydroazepino[4,5-b]indol-6(1H)-yl)ethanol]	30	70	66	95
CN1CCc2c(n(/C=C/c3ccccc3)c3ccc(Cl)cc23)CC1 [Compound No. 228, (E)-9-chloro-3-methyl-6-styryl-1,2,3,4,5,6-hexahydroazepino[4,5-b]indole]	104	102	97	99
